Test results reported in US7462600B2, “Macrolides” (Pfizer Inc, priority 2004, dated 2008).
Converted amounts (≈) assume the structure as drawn.

Legend:
Type in all cases: cell-based
[1] = tested on: Haemophilus influenzae 1218; assay: MIC, microtiter broth dilution (NCCLS M100-S14), H. influenzae 1218 (susceptible); details: Haemophilus influenzae 1218
Outline: (§1)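 Steps: dissolve compound in DMSO to 40 mg/ml stock; dilute in broth across microtiter trays; inoculate strains; record MIC per NCCLS M100-S14.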

[2] = tested on: Streptococcus pneumoniae 1095; details: Streptococcus pneumoniae 1095; microtiter broth dilution
Outline: as §1

[3] = tested on: Streptococcus pneumoniae 1175; details: Streptococcus pneumoniae 1175; microtiter broth dilution
Outline: as §1

[4] = tested on: Streptococcus pyogenes 1079; assay: MIC, microtiter broth dilution (NCCLS M100-S14), S. pyogenes 1079 (ermB); details: Streptococcus pyogenes 1079
Outline: as §1

[5] = tested on: Streptococcus pneumoniae 1016; assay: MIC, microtiter broth dilution (NCCLS M100-S14), S. pneumoniae 1016 (susceptible); details: Streptococcus pneumoniae 1016
Outline: as §1

Row | SMILES | MIC H. influenzae 1218 [1] [mg/L] | MIC S. pneumo. 1095 [2] [mg/L] | MIC S. pneumo. 1175 [3] [mg/L] | MIC S. pyogenes 1079 [4] [mg/L] | MIC S. pneumo. 1016 [5] [mg/L]
1 | CCC1OC(=O)C(C)C(=O)C(C)C(OC2OC(C)CC(N(C)C)C2O)C(C)(OC)CC(C)C(=O)C(C)C2N(C3CN(S(=O)(=O)c4cccc(C#N)c4)C3)C(=O)OC12C (stereo not drawn) [Example 3.10, 3-descladinosyl-11,12-dideoxy-6-O-methyl-3-oxo-12,11-(oxycarbonyl-(1-(3-cyanobenzenesulfonyl)-azetidin-3-yl)-imino)-erythromycin A] | 0.25 (≈ 0.3 µM) | <0.06 | <0.06 | 4 (≈ 4.8 µM) | <0.06
2 | CCC1OC(=O)C(C)C(=O)C(C)C(OC2OC(C)CC(N(C)C)C2O)C(C)(OC)CC(C)C(=O)C(C)C2N(C3CN(S(=O)(=O)c4ccc(C#N)cc4)C3)C(=O)OC12C (stereo not drawn) [Example 3.11, 3-descladinosyl-11,12-dideoxy-6-O-methyl-3-oxo-12,11-(oxycarbonyl-(1-(4-cyanobenzenesulfonyl)-azetidin-3-yl)-imino)-erythromycin A] | 0.25 (≈ 0.3 µM) | <0.06 | 0.5 (≈ 0.6 µM) | 8 (≈ 9.6 µM) | <0.06
3 | CCC1OC(=O)C(C)C(=O)C(C)C(OC2OC(C)CC(N(C)C)C2O)C(C)(OC)CC(C)C(=O)C(C)C2N(C3CN(S(=O)(=O)c4cnn(-c5ccccc5)c4C)C3)C(=O)OC12C (stereo not drawn) [Example 3.12, 5-methyl-1-phenyl-1H-pyrazole-4-sulfonyl] | 4 (≈ 4.5 µM) | 1 (≈ 1.13 µM) | <0.06 | 64 (≈ 72.1 µM) | <0.06
4 | CCC1OC(=O)C(C)C(=O)C(C)C(OC2OC(C)CC(N(C)C)C2O)C(C)(OC)CC(C)C(=O)C(C)C2N(C3CN(S(=O)(=O)c4ccc(-c5cnco5)cc4)C3)C(=O)OC12C (stereo not drawn) [Example 3.13, 3-descladinosyl-11,12-dideoxy-6-O-methyl-3-oxo-12,11-(oxycarbonyl-(1-(4-(oxazol-5-yl)-benzenesulfonyl)-azetidin-3-yl)-imino)-erythromycin A] | 0.25 (≈ 0.286 µM) | 0.12 (≈ 0.137 µM) | <0.06 | 4 (≈ 4.57 µM) | <0.06
5 | CCC1OC(=O)C(C)C(=O)C(C)C(OC2OC(C)CC(N(C)C)C2O)C(C)(OC)CC(C)C(=O)C(C)C2N(C3CN(S(=O)(=O)c4ccc(-n5nc(C)c(=O)[nH]c5=O)cc4)C3)C(=O)OC12C (stereo not drawn) [Example 3.14, 4-(4,5-dihydro-6-methyl-3,5-dioxo-1,2,4-triazin-2(3H)-yl)benzenesulfonyl] | 1 (≈ 1.07 µM) | 1 (≈ 1.07 µM) | 1 (≈ 1.07 µM) | >64.00 | <0.06
6 | CCC1OC(=O)C(C)C(=O)C(C)C(OC2OC(C)CC(N(C)C)C2O)C(C)(OC)CC(C)C(=O)C(C)C2N(C3CN(S(=O)(=O)c4cnc5ccccn45)C3)C(=O)OC12C (stereo not drawn) [Example 3.15, 3-descladinosyl-11,12-dideoxy-6-O-methyl-3-oxo-12,11-(oxycarbonyl-(1-(H-imidazo[1,2-a]pyridine-3-sulfonyl)-azetidin-3-yl)-imino)-erythromycin A] | 0.25 (≈ 0.295 µM) | <0.06 | <0.06 | 1 (≈ 1.18 µM) | <0.06
7 | CCC1OC(=O)C(C)C(=O)C(C)C(OC2OC(C)CC(N(C)C)C2O)C(C)(OC)CC(C)C(=O)C(C)C2N(C3CN(S(=O)(=O)c4ccc(-n5cccn5)nc4)C3)C(=O)OC12C (stereo not drawn) [Example 3.16, 3-descladinosyl-11,12-dideoxy-6-O-methyl-3-oxo-12,11-(oxycarbonyl-(1-(6-(1H-pyrazol-1-yl)pyridine-3-sulfonyl)-azetidin-3-yl)-imino)-erythromycin A] | 0.5 (≈ 0.571 µM) | <0.06 | <0.06 | 1 (≈ 1.14 µM) | <0.06
8 | CCC1OC(=O)C(C)C(=O)C(C)C(OC2OC(C)CC(N(C)C)C2O)C(C)(OC)CC(C)C(=O)C(C)C2N(C3CN(S(=O)(=O)c4cnc5ncccn45)C3)C(=O)OC12C (stereo not drawn) [Example 3.17, 3-descladinosyl-11,12-dideoxy-6-O-methyl-3-oxo-12,11-(oxycarbonyl-(1-(imidazo[1,2-a]pyrimidine-3-sulfonyl)-azetidin-3-yl)-imino)-erythromycin A] | 0.5 (≈ 0.589 µM) | <0.06 | 0.12 (≈ 0.141 µM) | 4 (≈ 4.71 µM) | <0.06
9 | CCC1OC(=O)C(C)C(=O)C(C)C(OC2OC(C)CC(N(C)C)C2O)C(C)(OC)CC(C)C(=O)C(C)C2N(C3CN(S(=O)(=O)c4ccccc4C#N)C3)C(=O)OC12C (stereo not drawn) [Example 3.18, 3-descladinosyl-11,12-dideoxy-6-O-methyl-3-oxo-12,11-(oxycarbonyl-(1-(2-cyanobenzenesulfonyl)-azetidin-3-yl)-imino)-erythromycin A] | 0.12 (≈ 0.144 µM) | 1 (≈ 1.2 µM) | <0.06 | 2 (≈ 2.4 µM) | <0.06
10 | CCC1OC(=O)C(C)C(=O)C(C)C(OC2OC(C)CC(N(C)C)C2O)C(C)(OC)CC(C)C(=O)C(C)C2N(C3CN(S(=O)(=O)c4ncn5ccccc45)C3)C(=O)OC12C (stereo not drawn) [Example 3.19, 3-descladinosyl-11,12-dideoxy-6-O-methyl-3-oxo-12,11-(oxycarbonyl-(1-(H-imidazo[1,5-a]pyridine-1-sulfonyl)-azetidin-3-yl)-imino)-erythromycin A] | 0.25 (≈ 0.295 µM) | <0.06 | <0.06 | 1 (≈ 1.18 µM) | <0.06
11 | CCC1OC(=O)C(C)C(=O)C(C)C(OC2OC(C)CC(N(C)C)C2O)C(C)(OC)CC(C)C(=O)C(C)C2N(C3CN(S(=O)(=O)c4ccc(-c5n[nH]c(=O)[nH]c5=O)cc4)C3)C(=O)OC12C (stereo not drawn) [Example 3.20, 3-descladinosyl-11,12-dideoxy-6-O-methyl-3-oxo-12,11-(oxycarbonyl-(1-(4-(2,3,4,5-tetrahydro-3,5-dioxo-1,2,4-triazin-6-yl)benzenesulfonyl)-azetidin-3-yl)-imino)-erythromycin A] | 0.5 (≈ 0.544 µM) | <0.06 | 2 (≈ 2.18 µM) | 8 (≈ 8.7 µM) | <0.06
12 | CCC1OC(=O)C(C)C(=O)C(C)C(OC2OC(C)CC(N(C)C)C2O)C(C)(OC)CC(C)C(=O)C(C)C2N(C3CN(S(=O)(=O)c4cnn(-c5ccccn5)c4)C3)C(=O)OC12C (stereo not drawn) [Example 3.21, 1-(pyridin-2-yl)-1H-pyrazole-4-sulfonyl] | 1 (≈ 1.14 µM) | <0.06 | <0.06 | >64.00 | <0.06
13 | CCC1OC(=O)C(C)C(=O)C(C)C(OC2OC(C)CC(N(C)C)C2O)C(C)(OC)CC(C)C(=O)C(C)C2N(C3CN(S(=O)(=O)c4ccc5oc(=O)[nH]c5c4)C3)C(=O)OC12C (stereo not drawn) [Example 3.22, 3-descladinosyl-11,12-dideoxy-6-O-methyl-3-oxo-12,11-(oxycarbonyl-(1-(2,3-dihydro-2-oxobenzo[d]oxazole-5-sulfonyl)-azetidin-3-yl)-imino)-erythromycin A] | 0.25 (≈ 0.289 µM) | 4 (≈ 4.62 µM) | 0.5 (≈ 0.578 µM) | 1 (≈ 1.16 µM) | <0.06
14 | CCC1OC(=O)C(C)C(=O)C(C)C(OC2OC(C)CC(N(C)C)C2O)C(C)(OC)CC(C)C(=O)C(C)C2N(C3CN(S(=O)(=O)c4ccc(S(C)(=O)=O)cc4)C3)C(=O)OC12C (stereo not drawn) [Example 3.23, 4-(methylsulfonyl) benzenesulfonyl] | 1 (≈ 1.13 µM) | 0.25 (≈ 0.282 µM) | <0.06 | >64.00 | <0.06
15 | CCC1OC(=O)C(C)C(=O)C(C)C(OC2OC(C)CC(N(C)C)C2O)C(C)(OC)CC(C)C(=O)C(C)C2N(C3CN(S(=O)(=O)c4ccccc4S(C)(=O)=O)C3)C(=O)OC12C (stereo not drawn) [Example 3.25, 2-(methylsulfonyl) benzenesulfonyl] | 1 (≈ 1.13 µM) | <0.06 | 0.25 (≈ 0.282 µM) | >64.00 | <0.06
16 | CCC1OC(=O)C(C)C(=O)C(C)C(OC2OC(C)CC(N(C)C)C2O)C(C)(OC)CC(C)C(=O)C(C)C2N(C3CN(S(=O)(=O)c4ccc(Oc5ccncc5)cc4)C3)C(=O)OC12C (stereo not drawn) [Example 3.26] | 4 (≈ 4.44 µM) | <0.06 | 8 (≈ 8.88 µM) | 64 (≈ 71 µM) | <0.06
17 | CCC1OC(=O)C(C)C(=O)C(C)C(OC2OC(C)CC(N(C)C)C2O)C(C)(OC)CC(C)C(=O)C(C)C2N(C3CN(S(=O)(=O)c4ccc(Oc5cccnc5)cc4)C3)C(=O)OC12C (stereo not drawn) [Example 3.27, 4-(pyridin-3-yloxy) benzenesulfonyl] | 1 (≈ 1.11 µM) | <0.06 | <0.06 | 32 (≈ 35.5 µM) | <0.06
18 | CCC1OC(=O)C(C)C(=O)C(C)C(OC2OC(C)CC(N(C)C)C2O)C(C)(OC)CC(C)C(=O)C(C)C2N(C3CN(S(=O)(=O)c4cn(C)c(C)n4)C3)C(=O)OC12C (stereo not drawn) [Example 3.28] | 1 (≈ 1.21 µM) | <0.06 | 4 (≈ 4.84 µM) | >64.00 | <0.06
